According to patent US4868208A, “Antifungal agent and method” (Merck & Co., Inc., priority 1988, dated 1989):

System: Cryptococcus neoformans
Experiment: Agar dilution assay (MIC) against an expanded panel of 84 Cryptococcus neoformans strains
Format: cell-based
Settings: 84 Cryptococcus neoformans isolates, yeast nitrogen base dextrose agar, 0.008 to 16.0 μg/ml
Method: Such activity may be illustrated with test results against Cryptococcus neoformans employing yeast nitrogen base dextrose agar medium. In carrying out the assay, Compound Ia' was solubilized in 10 percent dimethyl sulfoxide (DMSO) supplemented with one drop of Tween 20. Twofold dilutions were made with sterile distilled water/10 percent DMSO to obtain final drug concentrations in the agar dilution assay plates ranging from 0.008 to 16.0 μg/ml against an expanded panel of 84 Cryptococcus neoformans strains.
The minimum inhibitory concentration against the expanded panel of 84 Cryptococcus neoformans isolates may be summarized as follows: […]

COC(=O)C(C)CNC(=O)C(Cc1ccc(OC)c(Cl)c1)NC(=O)C=CCC(OC(=O)C(O)CC(C)C)C(C)C1OC1c1ccccc1 (stereo not drawn) [Compound Ia', 5-[[2-[[2-(methoxycarbonyl)propyl]amino]-1-[(3-chloro-4-methoxyphenyl)methyl]-2-oxoethyl]amino]-5-oxo-1-[1-(3-phenyloxiranyl)ethyl]-3-pentenyl 2-hydroxy-4-methylpentanoate]
MIC50 (concentration at which 50% of the strains were inhibited): 8.0 µg/mL | MIC90 (concentration at which 90% of the strains were inhibited): 8.0 µg/mL | G-MIC (geometric means of MIC) (10 percent DMSO/Tween 20): > 6.11 µg/mL
